According to US5093370A, “Quaternary ammonium compounds having muscle relaxation activity” (priority 1989, dated 1992):

Legend:
[1] = system: neuromuscular preparations (hemiinterseptum neuromuscule); assay: Muscle relaxation action: inhibition of nerve-evoked contraction of mouse neuromuscular preparation; assay type: cell-based, ddY mice; settings: read-out: Muscle relaxation action IC50 (90% reliance)
Description: Muscle relaxation action IC50)
(§1) To prepare neuromuscular preparations ddY mice 6 to 10 weeks old weighing 27.0 to 42.0 g were decapitated, venesected, and the hemiinterseptum neuromuscule was removed. This preparation was suspended by applying 1 gram of a strain in Krebs-Henseleit's solution at 36 ±1° C., through which a mixed gas of carbon dioxide/oxygen (5:95) was passed, an electric shock (0.4 to 0.5V, 0.2 Hz, […].) was applied to the nerve by platinum electrodes, and the resulting short contraction reaction was detected by an isometric transducer (Nippon Koden Sha, Japan) and recorded by a biophysiograph system (San-Ei, Japan). An average of 12 contraction height data obtained one minute prior to the administration of a test compound was used as a control. The test compound was accumulatively administered at two minute intervals, and the contraction height two minutes after each administration was compared with the control, to calculate the percentage of inhibition. To ensure the reliability of the tests, usually four measurements were used for each administration. The IC50 value was obtained on a line linearized by the method of least aqueous from a scope from a 10 to 60% inhibition in a log dose-inhibition curve.

[2] = system: neuromuscular preparations (hemiinterseptum neuromuscule); assay: Muscle relaxation action under a diabetic condition (neuromuscular preparations from alloxan-treated mice); assay type: cell-based; settings: Mus musculus; alloxan diabetic ddY mice 8 to 11 weeks old, blood glucose 310 to 460 mg/dl; parentheses: 90% reliance
Description: as §1, with “administration.” for “administration. The IC50 value was obtained on a line linearized by the method of least aqueous from a scope from a 10 to 60% inhibition in a log dose-inhibition curve.”
Muscle relaxation action under a diabetic condition IC50
Alloxan monohydrate (Nakarai Kagaku, Japan) was administered to the tail vein of ddY mice 4 to 5 weeks old, in a dose of 85 mg/kg, and the blood glucose level was monitored starting at the 28th day, by a glucose analyzer from the administration of alloxan (Bechmann Type II). Mice 8 to 11 weeks old and weighing 19.0 to 36.0 g, and having a blood glucose level of 310 to 460 mg/dl, were chosen and used to prepare neuromuscular preparations as described above.

[3] = ddY mice 6 to 10 weeks old, Krebs-Henseleit's solution, 36 ±1° C., contraction height two minutes after each cumulative administration, parentheses: 90% reliance

Structure (SMILES) | IC50 [1] | IC50 [1, 3] | IC50 [2]
C[N+](C)(C)CCCCc1cccc(CCCC[N+](C)(C)C)c1 [Example 16, 1,3-Bis(4-trimethylammoniobutyl)benzene diiodide] | 531 µM | – | –
CC[N+](CC)(CC)CCCCCc1ccc(CCCCC[N+](CC)(CC)CC)cc1 [Example 10, 1,4-Bis(5-triethylammoniopentyl)benzene diiodide] | – | 11.2 µM | –
CC[N+](CC)(CC)CCCc1ccc(CCC[N+](CC)(CC)CC)cc1 [Example 6, 1,4-Bis(3-triethylammoniopropyl)benzene diiodide] | – | 176 µM | –
C[N+](C)(C)CCCc1ccc2cc(CCC[N+](C)(C)C)ccc2c1 [Example 31, 2,6-Bis(3-trimethylammoniopropyl)naphthalene diiodide] | – | 186 µM | –
C[N+](C)(C)CCCc1ccc(-c2ccc(CCC[N+](C)(C)C)cc2)cc1 [Example 34, 4,4'-Bis(3-trimethylammoniopropyl)biphenyl diiodide] | 132 µM | – | –
C[N+](C)(C)CCCCCCc1ccc(CCCCCC[N+](C)(C)C)cc1 [Example 20, 1,4-Bis(6-trimethylammoniohexyl)benzene diiodide] | 15.9 µM | – | 21.7 µM
C[N+](C)(C)CCCCCCCCCC[N+](C)(C)C [Decamethonium, reference compound] | – | 101 µM | 131 µM
c1cc[n+](CCCc2ccc(CCC[n+]3ccccc3)cc2)cc1 [Example 8, 1,4-Bis[3-(1-pyridinio)propyl]benzene dibromide] | – | 207 µM | –
C[N+](C)(C)CCCCCCCCc1ccccc1 [Example 15, N,N,N-Trimethyl-8-phenyloctylammonium p-tosylate] | – | 252 µM | –
C[N+](C)(C)CCCCc1ccccc1CCCC[N+](C)(C)C [Example 17, 1,2-Bis(4-trimethylammoniobutyl)benzene diiodide] | 59.7 µM | – | –
CC[N+](CC)(CC)CCCc1ccc2cc(CCC[N+](CC)(CC)CC)ccc2c1 [Example 32, 2,6-Bis(3-triethylammoniopropyl)naphthalene diiodide] | – | 79.1 µM | –
C[N+](C)(C)CCOCc1ccc(COCC[N+](C)(C)C)cc1 [Example 12, 1,4-Bis(2-trimethylammonioethoxymethyl)benzene diiodide] | 750 µM | – | –
C[N+]1(CCCCc2ccc(CCCC[N+]3(C)CCCCC3)cc2)CCCCC1 [Example 19, 1,4-Bis[4-(1-methyl-1-piperidinio)butyl]benzene dibromide] | – | 95.9 µM | –
CC[N+](CC)(CC)CCCCCCCCc1ccc(CCCCCCCC[N+](CC)(CC)CC)cc1 [Example 36, 1,4-Bis(8-triethylammoniooctyl)benzene diiodide] | – | 114 µM | –
CC[N+](CC)(CC)CCCCCCc1ccc(CCCCCC[N+](CC)(CC)CC)cc1 [Example 21, 1,4-Bis(6-triethylammoniohexyl)benzene diiodide] | – | 6.81 µM | 7.66 µM
CC[N+](CC)(CC)CCCCc1ccc(CCCC[N+](CC)(CC)CC)cc1 [Example 18, 1,4-Bis(triethylammoniobutyl)benzene diiodide] | – | 52.4 µM | 51.1 µM
C[N+]1(CCCc2ccc(CCC[N+]3(C)CCCCC3)cc2)CCCCC1 [Example 7, 1,4-Bis3-(1-methyl-1-piperidinio)propyl]benzene dibromide] | 119 µM | – | –

Structure (SMILES) | IC50 [1] | IC50 [1, 3] | IC50 [2]
C[N+](C)(C)CCC[S+]([O-])c1ccc([S+]([O-])CCC[N+](C)(C)C)cc1 (stereo not shown) [Example 29, 1,4-Bis(3-trimethylammoniopropylsulfinyl)benzene diiodide] | – | 5.46 µM | –
C[N+]1(CCCCCCc2ccc(CCCCCC[N+]3(C)CCCCC3)cc2)CCCCC1 [Example 22, 1,4-Bis[6-(1-methyl-1-piperidinio)hexyl]benzene dibromide] | – | 17.3 µM | 21.8 µM
C[N+](C)(C)CCC#Cc1ccc(C#CCC[N+](C)(C)C)cc1 [Example 25, 1,4-Bis(4-trimethylammonio-1-butynyl)benzene diiodide] | 110 µM | – | –
C[N+](C)(C)CCOC(=O)CCC(=O)OCC[N+](C)(C)C [Succinylcholine, reference compound] | – | 25.2 µM | 19.3 µM
C[N+](C)(C)CCCC(=O)c1ccc(C(=O)CCC[N+](C)(C)C)cc1 [Example 2, 1,4-Bis(4-trimethylammoniobutyryl)benzene diiodide] | 26 µM | – | 32.7 µM
C[N+]1(CCCCCc2ccc(CCCCC[N+]3(C)CCCCC3)cc2)CCCCC1 [Example 11] | – | 60.7 µM | –
CC(=O)OC(CCC[N+](C)(C)C)c1ccc(C(CCC[N+](C)(C)C)OC(C)=O)cc1 (stereo not shown) [Example 4, 1,4-Bis(1-acetoxy-4-trimethylammoniobutyl)benzene diiodide] | 450 µM | – | –
C[N+](C)(C)CC(CCCc1ccc(CCCC(C[N+](C)(C)C)C[N+](C)(C)C)cc1)C[N+](C)(C)C [Example 13] | – | 1440 µM | –
CC[N+](CC)(CC)CCCc1ccc(-c2ccc(CCC[N+](CC)(CC)CC)cc2)cc1 [Example 35, 4,4'-Bis(3-triethylammoniopropyl)biphenyl diiodide] | – | 24.9 µM | –
CC[N+](CC)(CC)CCCCCSc1ccc(SCCCCC[N+](CC)(CC)CC)cc1 [Example 33, 1,4-Bis(5-triethylammoniopentylthio)benzene diiodide] | – | 1.5 µM | –
C[N+](C)(C)CCCS(=O)(=O)c1ccc(S(=O)(=O)CCC[N+](C)(C)C)cc1 [Example 30, 1,4-Bis(3-trimethylammoniopropylsulfonyl)benzene diiodide] | – | 9.44 µM | –
C[N+](C)(C)CCCCc1ccc(CCCC[N+](C)(C)C)cc1 [Example 1, 1,4-Bis(4-trimethylammoniobutyl)benzene diiodide] | 22.8 µM | – | 25.9 µM
CC[N+](CC)(CC)CCCCCCCc1ccc(CCCCCCC[N+](CC)(CC)CC)cc1 [Example 27, 1,4-Bis(7-triethylammonioheptyl)benzene diiodide] | – | 5.96 µM | –
CC[N+](CC)(CC)CCCCCCc1ccc(CCCCCC[N+](CC)(CC)CC)c([N+](=O)[O-])c1 [Example 26, 1,4-Bis(6-triethylammoniohexyl)-2-nitrobenzene diiodide] | – | 4.52 µM | –
C[N+](C)(C)CCCC(O)c1ccc(C(O)CCC[N+](C)(C)C)cc1 (stereo not shown) [Example 3, 1,4-Bis(1-hydroxy-4-trimethylammoniobutyl)benzene diiodide] | – | 209 µM | –
C[N+](C)(C)CCCSc1ccc(SCCC[N+](C)(C)C)cc1 [Example 28, 1,4-Bis(3-trimethylammoniopropylthio)benzene diiodide] | – | 3.89 µM | –
C[N+](C)(C)CCCCc1ccc(CCCC[N+](C)(C)C)c([N+](=O)[O-])c1 [Example 23, 1,4-Bis(4-trimethylammoniobutyl)-2-nitrobenzene diiodide] | 12.7 µM | – | 11.9 µM
